Publication PMC9146695, “Globularia alypum L. and Related Species: LC-MS Profiles and Antidiabetic, Antioxidant, Anti-Inflammatory, Antibacterial and Anticancer Potential” (Pharmaceuticals, 2022)
In brackets after ≈: the same amount, converted by molar mass. Read-outs that look alike come from different tables or passages of the source.

Assays:
α-glucosidase = settings: cited from earlier work
[1] = cited from earlier work
HL60 cells = settings: cited from earlier work
[2] = test system: YMB-1 breast cancer cells; settings: cited from earlier work
KB cells = settings: cited from earlier work
[3] = DPPH radical scavenging activity assay; settings: methanolic aerial parts extracts (Soxhlet); 30 min
Experimental: Antiradical activity was assessed using the free radical 2,2-diphenyl-1-picrylhydrazyl (DPPH) according to the previously described procedure. Methanolic stock solution of DPPH (0.1 mM) was dissolved to obtain absorbance of 0.70 ± 0.02. In 2 mL of prepared solution, 10 µL sample was added. After 30 min incubation, absorbance was measured at 517 nm with methanol used as blank. Results are expressed as concentrations observed to reduce the DPPH radical absorbance by 50% (IC50).

[4] = test system: S. aureus strains (MSSA and MRSA); assay: Serial broth microdilution, S. aureus strains taken together; format: cell-based; settings: Staphylococcus aureus; reference standard; read-out: MIC, anti-staphylococcal activity
E. faecalis = settings: cited from earlier work
[5] = test system: Pseudomonas aeruginosa ATCC 27853; assay: Serial broth microdilution with agar sub-cultivation; format: cell-based; settings: ATCC27853, aerial parts extracts, TTC detection, n.d. = growth inhibition not detected (0.36–22.73 mg/mL)
MDA-MB-231 = test system: MDA-MB-231; set-up: method as in PMID 34719192; settings: cited from earlier work
COX-1 = test system: COX-1; set-up: method as in PMID 11849848; settings: cited from earlier work
[6] = test system: Staphylococcus aureus ATCC 6538; assay: Serial broth microdilution with agar sub-cultivation; format: cell-based; settings: ATCC6538, aerial parts extracts, TTC detection
S. aureus = settings: cited from earlier work
E. coli = test system: E. coli; set-up: method as in doi:10.1016/j.sajb.2010.04.010; settings: range given for both compounds; cited from earlier work
COX-2 = test system: COX-2; set-up: method as in PMID 11849848; settings: cited from earlier work
[7] = test system: Escherichia coli ATCC 10536; assay: Serial broth microdilution with agar sub-cultivation; format: cell-based; settings: ATCC10536, aerial parts extracts, TTC detection, n.d. = growth inhibition not detected (0.18–11.36 mg/mL)
P. aeruginosa = settings: cited from earlier work
[8] = test system: Staphylococcus aureus ATCC 29213; assay: Serial broth microdilution with agar sub-cultivation; format: cell-based
five MRSA strains = test system: five MRSA strains; set-up: method as in PMID 18404351; settings: cited from earlier work
[9] = test system: Staphylococcus aureus ATCC 6538; assay: Well diffusion method; format: cell-based; settings: aerial parts extracts c = 50 mg/mL; antibiotics c = 0.2 mg/mL
Experimental: (§1) Antibacterial activity was evaluated using the following strains: Bacillus cereus American Type Culture Collection (ATCC, Manassas, VA, USA) 11778, B. subtilis ATCC 6633, Enterococcus faecalis ATCC 29212, Staphylococcus aureus ATCC 6538 and S. aureus ATCC 29213 among Gram-positive and Escherichia coli ATCC 10536, Klebsiella pneumoniae MFBF 10402 and Pseudomonas aeruginosa ATCC 27853 among Gram-negative bacterial species. Additionally, eight clinical isolates of S. aureus, including methicillin-resistant S. aureus (MRSA MFB F101, MRSA MFBF 124, MRSA MFBF 154, MRSA MFBF 164, and MRSA MFBF 177) and methicillin susceptible S. aureus (S. aureus MFBF 505, S. aureus MFBF 10661 and S. aureus MFBF 10666) were used. Bacterial strains were sourced from the Collection of Microorganisms, Department of Microbiology, Faculty of Pharmacy and Biochemistry, University of Zagreb. Inoculums were prepared from overnight cultures that were cultured on tryptic soy agar (TSA) at 37 °C, suspended in sterile physiological saline, with the optic density adjusted to 0.5 McFarland (1.5 × 10^8 colony-forming units (CFUs)/mL) using a densitometer (Densimat, BioMérieux, Marcy-l’Étoile, France). Right before cultivation in nutrient medium, 1 mL of each prepared suspension was dissolved with 9 mL physiological saline. Prior to cell treatment, sample stock solutions in distilled water (c = 50 mg/mL) were filtered through Chromafil cellulose acetate filters of pore size 0.22 μm (Macherey-Nagel, Düren, Germany).
(§2) Well diffusion method was carried out according to the European Pharmacopoeia. Inoculums (100 μL) were transferred to individual petri dishes with 4 mm thick Müller–Hinton agar and equally distributed across agar surface with a glass L-stick. Wells were prepared using sterile stainless-steel cylinders (d = 6 mm) and filled with 50 μL of methanolic aerial parts extract solution (c = 50 mg/mL) in distilled water. Plates were incubated at 37 °C for 18 h in the dark. Diameters of the zones of inhibition of bacterial growth (mm) were read from the diameters of transparent zones around the wells. Gentamicin and norfloxacin (c = 0.2 mg/mL) were used as positive controls.

[10] = test system: Bacillus subtilis ATCC 6633; assay: Well diffusion method; format: cell-based; settings: aerial parts extracts c = 50 mg/mL; antibiotics c = 0.2 mg/mL; n.d. = growth inhibition not detected
Experimental: as §1, §2

[11] = test system: Klebsiella pneumoniae MFBF 10402; assay: Well diffusion method; format: cell-based; settings: aerial parts extracts c = 50 mg/mL; antibiotics c = 0.2 mg/mL; n.d. = growth inhibition not detected
Experimental: as §1, §2

[12] = test system: Escherichia coli ATCC 10536; assay: Well diffusion method; format: cell-based; settings: aerial parts extracts c = 50 mg/mL; antibiotics c = 0.2 mg/mL; n.d. = growth inhibition not detected
Experimental: as §1, §2

[13] = test system: Enterococcus faecalis ATCC 29212; assay: Well diffusion method; format: cell-based; settings: aerial parts extracts c = 50 mg/mL; antibiotics c = 0.2 mg/mL; n.d. = growth inhibition not detected
Experimental: as §1, §2

[14] = test system: Bacillus cereus ATCC 11778; assay: Well diffusion method; format: cell-based; settings: aerial parts extracts c = 50 mg/mL; antibiotics c = 0.2 mg/mL; n.d. = growth inhibition not detected
Experimental: as §1, §2

[15] = test system: Pseudomonas aeruginosa ATCC 27853; assay: Well diffusion method; format: cell-based; settings: aerial parts extracts c = 50 mg/mL; antibiotics c = 0.2 mg/mL; n.d. = growth inhibition not detected
Experimental: as §1, §2

[16] = test system: B. subtilis, B. cereus and S. aureus; set-up: method as in earlier work; settings: cited from earlier work
[17] = test system: CAMA-1 breast cancer cells; set-up: method as in doi:10.4314/tjpr.v17i9.4; settings: cited from earlier work
[18] = test system: HT-29 human colon adenocarcinoma cells; set-up: method as in doi:10.1007/s00044-015-1500-z; settings: cited from earlier work
B. subtilis = test system: B. subtilis; set-up: method as in PMID 31737673; settings: same ATCC strain as in the present study; cited from earlier work
[19] = compounds from Origanum majorana leaves
[20] = constituents of G. alypum and standards, read-out: DPPH radical scavenging IC50
[21] = isolated compounds of Clerodendrum bungei
[22] = same ATCC strain as in the present study

SMILES: O=c1cc(-c2ccc(O)c(O)c2)oc2cc(O)c(O)c(O)c12 [6-hydroxyluteolin]
- IC50 (α-glucosidase; [19]): 10 µM

SMILES: O=C(/C=C/c1ccc(O)c(O)c1)O[C@H]1[C@H](O)[C@@H](O)[C@H](OCCc2ccc(O)c(O)c2)O[C@@H]1CO [calceolarioside A, Calceolarioside A (Desrhamnosyl verbascoside)]
- IC50 ([1]; read-out: DPPH IC50): 22.9 µM

SMILES: CC(=O)OCC1=C[C@@H]2OC(=O)C3=CO[C@@H](O[C@@H]4O[C@H](CO)[C@@H](O)[C@H](O)[C@H]4O)[C@H]1[C@@H]32 [asperuloside, Asperuloside]
- IC50 HL60 cells (HL60 cells): 11.0 µg/mL (≈ 26.5 µM)
- IC50 YMB-1 breast cancer cells [2]: 0.7 µg/mL (≈ 1.69 µM)
- IC50 KB cells (KB cells): 104.2 µg/mL (≈ 251 µM)

SMILES: O=c1cc(-c2ccc(O)c(O)c2)oc2cc(O)cc(O)c12 [luteolin]
- IC50 (α-glucosidase; [19]): > 500 µM

SMILES: O=c1c(O)c(-c2ccc(O)c(O)c2)oc2cc(O)cc(O)c12 [quercetin]
- IC50 [1, 20]: 7.8 µM

SMILES: O=C(O)c1cc(O)c(O)c(O)c1 [Gallic Acid, gallic acid]
- DPPH radical scavenging activity IC50 [3]: 0.64 µg/mL

SMILES: Cc1c(C)c2c(c(C)c1O)CCC(C)(C(=O)O)O2 (centres unmarked) [Trolox]
- DPPH radical scavenging activity IC50 [3]: 2.71 µg/mL

SMILES: C[C@@H]1O[C@@H](O[C@@H]2[C@@H](O)[C@H](OCCc3ccc(O)c(O)c3)O[C@H](CO)[C@H]2OC(=O)/C=C/c2ccc(O)c(O)c2)[C@H](O)[C@H](O)[C@H]1O [Verbascoside, Verbascoside (Acteoside)]
- MIC [4]: 227 µg/mL (≈ 364 µM)
- MIC against E. faecalis (E. faecalis; range given for both compounds): 100 to 150 µg/mL
- MIC [5]: 227 µg/mL (≈ 364 µM)
- IC50 (MDA-MB-231): 0.159 to 0.258 µM
- IC50 ([1]; read-out: DPPH radical scavenging capacity IC50): 58.1 µM
- IC50 (COX-1): > 1000 µM
- MIC [6]: 227 µg/mL (≈ 364 µM)
- MIC, anti-staphylococcal activity (S. aureus): 60 µg/mL (≈ 96.1 µM)
- MIC against E. coli (E. coli): 100 to 250 µg/mL
- IC50 (COX-2): 690 µM
- MIC [7]: 227 µg/mL (≈ 364 µM)
- MIC against P. aeruginosa (P. aeruginosa; given for both compounds): 250 µg/mL (≈ 400 µM)
- IC50 (α-glucosidase; [21]): 500 µM
- MIC ([8]; ATCC29213, aerial parts extracts, TTC detection): 227 µg/mL (≈ 364 µM)
- MBC ([8]; ATCC29213, agar sub-cultivation): 227 µg/mL (≈ 364 µM)
- MIC against five MRSA strains (five MRSA strains): 64 to 256 µg/mL

SMILES: CCn1cc(C(=O)O)c(=O)c2cc(F)c(N3CCNCC3)cc21 [Norfloxacin, norfloxacin]
- growth inhibition zone [9]: 33.8 ± 0.8 mm
- growth inhibition zone [10]: 41.0 ± 0.0 mm
- growth inhibition zone [11]: 7.3 ± 0.5 mm
- growth inhibition zone [12]: 44.7 ± 1.0 mm
- growth inhibition zone [13]: 23.8 ± 0.8 mm
- growth inhibition zone [14]: 26.6 ± 0.9 mm
- growth inhibition zone [15]: 30.7 ± 2.8 mm

SMILES: O=c1cc(-c2ccc(O)c(O)c2)oc2cc(O[C@@H]3O[C@H](CO)[C@@H](O)[C@H](O)[C@H]3O)c(O)c(O)c12 [6-hydroxyluteolin 7-O-glucoside, 6-Hydroxyluteolin 7-O-glucoside]
- IC50 (α-glucosidase; [19]): 300 µM

SMILES: OCCc1ccc(O)c(O)c1 [hydroxytyrosyl moiety]
- IC50 (α-glucosidase): 150 µM

SMILES: O=c1cc(-c2ccc(O)c(O)c2)oc2cc(O[C@@H]3O[C@H](CO)[C@@H](O)[C@H](O)[C@H]3O)cc(O)c12 [luteolin 7-O-glucoside]
- MIC against B. subtilis, B. cereus and S. aureus [16]: 50 to 90 µg/mL

SMILES: O=C(OCC1=CC(O)C2(O)C=COC(O[C@@H]3O[C@H](CO)[C@@H](O)[C@H](O)[C@H]3O)C12)c1ccccc1 (some centres unmarked) [Globularifolin, Globularifolin (10-O-Benzoylmonomelittoside)]
- IC50 [17]: 10 µM

SMILES: CC(=O)OCC1=C[C@H](O)[C@@H]2C(C(=O)O)=CO[C@@H](O[C@@H]3O[C@H](CO)[C@@H](O)[C@H](O)[C@H]3O)[C@H]12 [asperulosidic acid, Asperulosidic acid]
- IC50 HT-29 cell viability [18]: 6.1 µg/mL (≈ 14.1 µM)

SMILES: Cc1cc(C(C)(C)C)c(O)c(C(C)(C)C)c1 [butylated hydroxytoluene]
- IC50 [1, 20]: 30 µM

SMILES: O=c1cc(-c2ccc(O)cc2)oc2cc(O)c(O)c(O)c12 [6-hydroxyapigenin, 6-hydroxyapigenin (scutellarein)]
- IC50 (α-glucosidase; [19]): 12 µM

SMILES: O=c1cc(-c2ccc(O)cc2)oc2c([C@@H]3O[C@H](CO)[C@@H](O)[C@H](O)[C@H]3O)c(O)c([C@@H]3O[C@H](CO)[C@@H](O)[C@H](O)[C@H]3O)c(O)c12 [vicenin-2, Vicenin-2 (Apigenin-6,8-di-C-glucoside)]
- IC50 (α-glucosidase): 271 µM

SMILES: COc1cc(/C=C/C(=O)O[C@H]2[C@H](O[C@@H]3O[C@@H](C)[C@H](O)[C@@H](O)[C@H]3O)[C@@H](O)[C@H](OCCc3ccc(O)c(O)c3)O[C@@H]2CO)ccc1O [leucosceptoside A, Leucosceptoside A]
- IC50 (α-glucosidase; [21]): 700 µM

SMILES: O=C(/C=C/c1ccc(O)c(O)c1)OC[C@H]1O[C@@H](OCCc2ccc(O)c(O)c2)[C@H](O)[C@@H](O)[C@@H]1O [calceolarioside B, Calceolarioside B (Desrhamnosyl isoverbascoside)]
- IC50 ([1]; read-out: DPPH IC50): 26.2 µM

SMILES: O=c1cc(-c2ccc(O)cc2)oc2cc(O)cc(O)c12 [apigenin, Apigenin]
- MIC against B. subtilis (B. subtilis): 8 µg/mL (≈ 29.6 µM)
- MIC against E. faecalis (E. faecalis; [22]): 8 µg/mL (≈ 29.6 µM)
- MIC against B. subtilis, B. cereus and S. aureus [16]: 30 to 80 µg/mL
- inhibitory activity against S. aureus (S. aureus): no inhibitory activity was observed
- MIC against P. aeruginosa (P. aeruginosa; [22]): 64 to 400 µg/mL
- IC50 (α-glucosidase; [19]): > 500 µM

SMILES: C[C@@H]1O[C@@H](O[C@@H]2[C@@H](O)[C@H](OCCc3ccc(O)c(O)c3)O[C@H](COC(=O)/C=C/c3ccc(O)c(O)c3)[C@H]2O)[C@H](O)[C@H](O)[C@H]1O [isoverbascoside, Isoverbascoside (Isoacteoside)]
- MIC against E. faecalis (E. faecalis; range given for both compounds): 100 to 150 µg/mL
- MIC, anti-staphylococcal activity (S. aureus): 130 µg/mL (≈ 208 µM)
- MIC against E. coli (E. coli): 100 to 250 µg/mL
- MIC against P. aeruginosa (P. aeruginosa; given for both compounds): 250 µg/mL (≈ 400 µM)
- IC50 (α-glucosidase; [21]): 100 µM
